“And” between values parts separate entries of the source, which are not always exact repeats. Identical values can stand only once.
Test system: 743489-274-T-PDC complex spheroid growth
Assay: Anticancer human tumor 743489-274-T-PDC patient-derived renal cell carcinoma cell line growth inhibition [AhR]
Details: for viability, T/C: stronger effect = lower value
Summary of the method: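 Complex tumor spheroids co-cultured with HUVEC and human MSC stroma; AhR antagonists tested in combination with standard-of-care and investigational agents. Top concentration at or near clinical Cmax (else 10 microM), half-log dilutions; growth expressed as percent test/control.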

[1] = curve of first compound, second compound 0.1 µM
[2] = curve of first compound, second compound 0.316 µM
[3] = curve of first compound, second compound 1 µM
[4] = curve of first compound, second compound 3.16 µM
[5] = curve of first compound, second compound 10 µM
[6] = second compound 0.1 µM, first compound 0.00949 µM
[7] = second compound 0.1 µM, first compound 0.03 µM
[8] = second compound 0.1 µM, first compound 0.0949 µM
[9] = second compound 0.1 µM, first compound 0.3 µM
[10] = second compound 0.1 µM, first compound 0.949 µM
[11] = second compound 0.1 µM, first compound 3 µM
[12] = second compound 0.316 µM, first compound 0.00949 µM
[13] = second compound 0.316 µM, first compound 0.03 µM
[14] = second compound 0.316 µM, first compound 0.0949 µM
[15] = second compound 0.316 µM, first compound 0.3 µM
[16] = second compound 0.316 µM, first compound 0.949 µM
[17] = second compound 0.316 µM, first compound 3 µM
[18] = second compound 1 µM, first compound 0.00949 µM
[19] = second compound 1 µM, first compound 0.03 µM
[20] = second compound 1 µM, first compound 0.0949 µM
[21] = second compound 1 µM, first compound 0.3 µM
[22] = second compound 1 µM, first compound 0.949 µM
[23] = second compound 1 µM, first compound 3 µM
[24] = second compound 3.16 µM, first compound 0.00949 µM
[25] = second compound 3.16 µM, first compound 0.03 µM
[26] = second compound 3.16 µM, first compound 0.0949 µM
[27] = second compound 3.16 µM, first compound 0.3 µM
[28] = second compound 3.16 µM, first compound 0.949 µM
[29] = second compound 3.16 µM, first compound 3 µM
[30] = second compound 10 µM, first compound 0.00949 µM
[31] = second compound 10 µM, first compound 0.03 µM
[32] = second compound 10 µM, first compound 0.0949 µM
[33] = second compound 10 µM, first compound 0.3 µM
[34] = second compound 10 µM, first compound 0.949 µM
[35] = second compound 10 µM, first compound 3 µM
[36] = second compound 0.1 µM, first compound 0.0316 µM
[37] = second compound 0.1 µM, first compound 0.1 µM
[38] = second compound 0.1 µM, first compound 0.316 µM
[39] = second compound 0.1 µM, first compound 1 µM
[40] = second compound 0.1 µM, first compound 3.16 µM
[41] = second compound 0.1 µM, first compound 10 µM
[42] = second compound 0.316 µM, first compound 0.0316 µM
[43] = second compound 0.316 µM, first compound 0.1 µM
[44] = second compound 0.316 µM, first compound 0.316 µM
[45] = second compound 0.316 µM, first compound 1 µM
[46] = second compound 0.316 µM, first compound 3.16 µM
[47] = second compound 0.316 µM, first compound 10 µM
[48] = second compound 1 µM, first compound 0.0316 µM
[49] = second compound 1 µM, first compound 0.1 µM
[50] = second compound 1 µM, first compound 0.316 µM
[51] = second compound 1 µM, first compound 1 µM
[52] = second compound 1 µM, first compound 3.16 µM
[53] = second compound 1 µM, first compound 10 µM
[54] = second compound 3.16 µM, first compound 0.0316 µM
[55] = second compound 3.16 µM, first compound 0.1 µM
[56] = second compound 3.16 µM, first compound 0.316 µM
[57] = second compound 3.16 µM, first compound 1 µM
[58] = second compound 3.16 µM, first compound 3.16 µM
[59] = second compound 3.16 µM, first compound 10 µM
[60] = second compound 10 µM, first compound 0.0316 µM
[61] = second compound 10 µM, first compound 0.1 µM
[62] = second compound 10 µM, first compound 0.316 µM
[63] = second compound 10 µM, first compound 1 µM
[64] = second compound 10 µM, first compound 3.16 µM
[65] = second compound 10 µM, first compound 10 µM
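Also: spheroids exposed to agents for 7 days before readout.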
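For viability, T/C in this document: 100% = DMSO vehicle control wells.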

O=C(C=Cn1cnc(-c2cc(C(F)(F)F)cc(C(F)(F)F)c2)n1)NNc1cnccn1 + Cc1cncc(-c2nc(NCCc3c[nH]c4ccccc34)c3ncn(C(C)C)c3n2)c1
IC50 [1]: > 3 µM
IC50 [2]: > 3 µM
IC50 [3]: > 3 µM
IC50 [4]: > 3 µM
IC50 [5]: > 3 µM
viability, T/C [6]: 103%
viability, T/C [7]: 95.6%
viability, T/C [8]: 112%
viability, T/C [9]: 122%
viability, T/C [10]: 124%
viability, T/C [11]: 96.5%
viability, T/C [12]: 96.2%
viability, T/C [13]: 92.5%
viability, T/C [14]: 97.5%
viability, T/C [15]: 107%
viability, T/C [16]: 106%
viability, T/C [17]: 83.7%
viability, T/C [18]: 94.5%
viability, T/C [19]: 102%
viability, T/C [20]: 98.7%
viability, T/C [21]: 105%
viability, T/C [22]: 108%
viability, T/C [23]: 104%
viability, T/C [24]: 111%
viability, T/C [25]: 101%
viability, T/C [26]: 102%
viability, T/C [27]: 117%
viability, T/C [28]: 103%
viability, T/C [29]: 96.2%
viability, T/C [30]: 80.4%
viability, T/C [31]: 80.2%
viability, T/C [32]: 84.4%
viability, T/C [33]: 102%
viability, T/C [34]: 102%
viability, T/C [35]: 101%

CC1(C)CCC(CN2CCN(c3ccc(C(=O)NS(=O)(=O)c4ccc(NCC5CCOCC5)c([N+](=O)[O-])c4)c(Oc4cnc5[nH]ccc5c4)c3)CC2)=C(c2ccc(Cl)cc2)C1 + CC(CO)NC(=O)c1cc(-c2ccc(Cl)cc2)nn(-c2cnn(C)c2)c1=O
IC50 [1]: > 10 µM
IC50 [2]: > 10 µM
IC50 [3]: > 10 µM
IC50 [4]: > 10 µM
IC50 [5]: > 10 µM
viability, T/C [36]: 96.8%
viability, T/C [37]: 97.4%
viability, T/C [38]: 90.6%
viability, T/C [39]: 93.7%
viability, T/C [40]: 106%
viability, T/C [41]: 96.3%
viability, T/C [42]: 110%
viability, T/C [43]: 95%
viability, T/C [44]: 93.1%
viability, T/C [45]: 89%
viability, T/C [46]: 90.3%
viability, T/C [47]: 94.8%
viability, T/C [48]: 92%
viability, T/C [49]: 88.3%
viability, T/C [50]: 98.1%
viability, T/C [51]: 86%
viability, T/C [52]: 91.9%
viability, T/C [53]: 95.8%
viability, T/C [54]: 89.8%
viability, T/C [55]: 96.3%
viability, T/C [56]: 107%
viability, T/C [57]: 95.7%
viability, T/C [58]: 98.9%
viability, T/C [59]: 93.6%
viability, T/C [60]: 95.4%
viability, T/C [61]: 112%
viability, T/C [62]: 93.1%
viability, T/C [63]: 93.9%
viability, T/C [64]: 95%
viability, T/C [65]: 104%

CC(C)c1c(-c2ccccc2)nc2c(C#N)c[nH]n2c1=O + Cc1cncc(-c2nc(NCCc3c[nH]c4ccccc34)c3ncn(C(C)C)c3n2)c1
IC50 [1]: > 10 µM
IC50 [2]: > 10 µM
IC50 [3]: > 10 µM
IC50 [4]: > 10 µM
IC50 [5]: > 10 µM
viability, T/C [36]: 101%
viability, T/C [37]: 126%
viability, T/C [38]: 104%
viability, T/C [39]: 103%
viability, T/C [40]: 96.2%
viability, T/C [41]: 104%
viability, T/C [42]: 112%
viability, T/C [43]: 104%
viability, T/C [44]: 101%
viability, T/C [45]: 107%
viability, T/C [46]: 100%
viability, T/C [47]: 96.7%
viability, T/C [48]: 107%
viability, T/C [49]: 103%
viability, T/C [50]: 111%
viability, T/C [51]: 96.7%
viability, T/C [52]: 105%
viability, T/C [53]: 102%
viability, T/C [54]: 114%
viability, T/C [55]: 119%
viability, T/C [56]: 121%
viability, T/C [57]: 119%
viability, T/C [58]: 110%
viability, T/C [59]: 115%
viability, T/C [60]: 126%
viability, T/C [61]: 141%
viability, T/C [62]: 133%
viability, T/C [63]: 125%
viability, T/C [64]: 109%
viability, T/C [65]: 134%

O=C(C=Cn1cnc(-c2cc(C(F)(F)F)cc(C(F)(F)F)c2)n1)NNc1cnccn1
viability, T/C (compound 0.00949 µM): 102% and 119% and 97.2%
viability, T/C (compound 0.03 µM): 104% and 110% (2×)
viability, T/C (compound 0.0949 µM): 105% and 119% and 115%
viability, T/C (compound 0.3 µM): 115% and 107% and 129%
viability, T/C (compound 0.949 µM): 114% and 113% and 116%
viability, T/C (compound 3 µM): 93.8% and 94.4% and 92.8%
IC50 (curve of compound): > 3 µM

CCN(c1cc(-c2ccc(CN3CCOCC3)cc2)cc(C(=O)NCc2c(C)cc(C)[nH]c2=O)c1C)C1CCOCC1 + CC(CO)NC(=O)c1cc(-c2ccc(Cl)cc2)nn(-c2cnn(C)c2)c1=O
IC50 [1]: > 3 µM
IC50 [2]: > 3 µM
IC50 [3]: > 3 µM
IC50 [4]: > 3 µM
IC50 [5]: > 3 µM
viability, T/C [6]: 103%
viability, T/C [7]: 103%
viability, T/C [8]: 99.6%
viability, T/C [9]: 93.5%
viability, T/C [10]: 93.8%
viability, T/C [11]: 112%
viability, T/C [12]: 97.6%
viability, T/C [13]: 96.5%
viability, T/C [14]: 103%
viability, T/C [15]: 102%
viability, T/C [16]: 90.5%
viability, T/C [17]: 92.6%
viability, T/C [18]: 104%
viability, T/C [19]: 102%
viability, T/C [20]: 107%
viability, T/C [21]: 92.4%
viability, T/C [22]: 94%
viability, T/C [23]: 106%
viability, T/C [24]: 84.4%
viability, T/C [25]: 92.3%
viability, T/C [26]: 103%
viability, T/C [27]: 82.6%
viability, T/C [28]: 92.7%
viability, T/C [29]: 98.8%
viability, T/C [30]: 105%
viability, T/C [31]: 106%
viability, T/C [32]: 91.7%
viability, T/C [33]: 104%
viability, T/C [34]: 101%
viability, T/C [35]: 91.1%

— PubChem BioAssay AID1919002 (Molecular Pharmacology Branch, DTP, NCI, 2023)
